# Reference: patent US20190269705A1, “METHODS AND MATERIALS FOR TREATING GRAFT VERSUS HOST DISEASE” (Regents of the University of Minnesota, priority 2017, published 2019)
# Entries after “also recorded” stand apart in the source; their conditions may differ.
# What was measured:
# Th1 cells [1] = experiment: Intracellular metabolites by mass spectrometry and pathway analysis, Th1; assay type: cell-based, mouse; settings: for Hits: Th1 Pathway
# Protocol: Differentiation: CD4 cells were isolated as previously described and differentiated in subset-specific medium (in triplicate) for 3 days, split at day 3 with new media and IL-2, then allowed to incubate a further 2 days. At day 5, wells were combined, cells washed lx in MACS buffer, re-isolated for CD4 via AutoMACS Pro automated magnetic separator (Miltenyi, Cat #: 130-092-545). Metabolites from Th1 and Th17 cells were extracted as described above.
# Differentiation. CD4 cells were isolated as previously described and differentiated in subset-specific medium in the presence of vehicle or CB839 (in triplicate) for 3 days, split at day 3 with new media and IL-2, then allowed to incubate a further 2 days. At day 5, wells were combined, cells washed 1× in MACS buffer and re-isolated for CD4 via AutoMACS Pro automated magnetic separator (Miltenyi, Cat #: 130-092-545). Metabolites from Th1 and Th17 cells were extracted and analyzed by LC-HRMS using a Q-Exactive as described previously (Gerriets et al., 2015). Data were range scaled and analyzed using Metaboanalyst 3.5 (Xia and Wishart, 2002) to generate heat maps and for principle component analyses.
# Th1 cells [2] = experiment: ATAC-Seq chromatin accessibility, Th1; assay type: cell-based, mouse; settings: Th1, 500 nM CB839, day 5
# Protocol: ATAC-Seq: Crude nuclei pellets were isolated as described elsewhere (see, e.g., Buenrostro et al., 2013 Nat Meth. 10(12):1213-1218) with modifications. Briefly, naïve CD4 T cells were skewed to Th1 and Th17 subsets in vitro with vehicle or in the presence of 500 nM CB839. At Day 5, T cells were re-isolated for CD4+ cells using Miltenyi CD4+ negative selection kit (Cat #: 130-104-454). 1×10^5 cells were removed for nuclei extraction in ATAC-Seq lysing buffer. Cells were exposed to Tn5+ adaptor proteins from Nextera DNA for 30 min at 37° C. and immediately placed on ice. Transposed eluate was amplified via PCR using Nextera DNA preparation kit (Illumina, Cat #: FC-121-1030), NEBNext High-fidelity 2× PCR mix (New England Labs, Cat #: M0541), and multiplexed (Illumina, Cat #: FC-121-1011). Samples were purified using Zymo DNA cleanup kit (Cat #: D4011). QC of samples was run on bioanalyzer before being sent for sequencing. RNA-Seq: Th1 and Th17 cells skewed with or without CB839 were isolated as previously described and total RNA extracted (Qiagen RNEasy Mini kit, Cat #: 74104). RNA was sent to VANTAGE core at Vanderbilt University and sequenced on HiSeq 2500. n=3 for each sample was analyzed. Samples were analyzed using the R program DESeq2. GSEA was performed using MSigDB. […]
# Th1 cells [3] = experiment: CD4 T cells in Th1 skewing conditions, flow cytometry
# [4] = tested on: CD4 T cells (Th0 conditions); experiment: CD4 T cells activated and cultured in IL2 (Th0 conditions), flow cytometry
# [5] = activated CD4 T cells, IL2, day 5
smiles,measurement,setting,value
O=C(Cc1cccc(OC(F)(F)F)c1)Nc1ccc(CCCCc2nnc(NC(=O)Cc3ccccn3)s2)nn1 [CB839],2-hydroxyglutarate (2-HG),"Th1 cells [1]; Th1, CB839-treated vs vehicle",increased in both Th1 and Th17
same,intracellular α-KG,"Th1 cells [1]; Th1, CB839-treated vs vehicle",reduced
same,programs of intracellular metabolites,"Th1 cells [1]; Th1, differentiated with CB839, 5 days",shifted
same,glutamate and aspartate levels,"Th1 cells [1]; Th1, over five days",rapidly decreased
same,steady state levels of glutamine,"Th1 cells [1]; Th1, over five days",rapidly increased
same,Hits,"Th1 cells [1]; Alanine, aspartate and glutamate metabolism",8
same,Hits,Th1 cells [1]; Arginine and proline metabolism,6
same,Hits,Th1 cells [1]; Butanoate metabolism,3
same,Hits,Th1 cells [1]; Citrate cycle (TCA cycle),5
same,Hits,Th1 cells [1]; Cysteine and methionine metabolism,3
same,Hits,Th1 cells [1]; D-Glutamine and Dglutamate metabolism,3
same,Hits,Th1 cells [1]; Histidine metabolism,3
same,Hits,Th1 cells [1]; Nitrogen metabolism,2
same,Hits,Th1 cells [1]; Pyrimidine metabolism,6
same,Hits,Th1 cells [1]; Pyruvate metabolism,3
same,genes with regions of altered chromatin accessibility,Th1 cells [2],more genes with regions of increased accessibility than genes with decreased accessibility
same,Myc protein,Th1 cells [3]; Th1,modestly increased Myc
same,"H3K27 tri-methylation, initially","Th1 cells [3]; Th1, Day 3",increased H3K27 tri-methylation
same,proliferation,"Th1 cells [3]; Th1, after three days in culture",impaired proliferation
same,ROS (DCFDA),"Th1 cells [3]; Th1, day 5",ROS increased
same,expression of KLRG1 and PD1,"Th1 cells [3]; Th1, day 5",increased expression of KLRG1 and PD1
same,global H3K27 trimethylation,"Th1 cells [3]; Th1, day 5, normalized to total H3",decreased
same,phospho-S6,"Th1 cells [3]; Th1, day 5, with IL2",increased phosphor-S6; also recorded: increased phospho-S6
same,ROS (DCFDA),"Th1 cells [3]; Th1, day 5, listed as CD839",increased ROS
same,global H3K4 trimethylation,"Th1 cells [3]; Th1, day five",decreased; also recorded: reduced
same,proliferation,"Th1 cells [3]; Th1, day five",partially recovered proliferation by day five
same,total rRNA levels per cell,"Th1 cells [3]; Th1, day five",increased
same,H3K27 methylation in the absence of IL2,"Th1 cells [3]; Th1 skewing conditions, no IL2",hypermethylated H3K27
same,Th1 cytokine production and differentiation,"Th1 cells [3]; Th1 skewing, 5 days, CB839 vs vehicle",increased; also recorded: appeared to increase Th1 cytokine secretion
same,induction of Treg (Foxp3),Th1 cells [3]; under Th1 conditions,failed to do so
same,Foxp3 expression,[4]; CD4+ T cells stimulated in the presence of IL-2 and CB839,unchanged
same,phospho-S6,[4]; Th0 cells in the presence of IL2,enhanced phospho-S6
same,IFNγ expression,[4]; [5],greater expression of IFNγ
same,Tbet expression,[4]; [5],greater expression
